In US8518934B2, “Oxycarbamoyl compounds and the use thereof” (Shonogi & Co., Ltd., priority 2008, dated 2013):

Each compound was assayed against T1, N-type calcium channel (NTCC) (Homo sapiens, UniProt Q00975) (assay: FLIPR calcium mobilization assay for N-type calcium channel). Details: calcium mobilization in vitro assay; differentiated IMR32 cells, 90 mM KCl, 5 μM nitrendipine, Fluo-4.
T1 construct: endogenous in cells; host or cells: differentiated IMR32 cells (ATCC)
Format: cell-based
Protocol: Cell maintenance and differentiation. Unless noted otherwise, cell culture reagents were purchased from Mediatech of Herndon, Md. IMR32 cells (American Type Culture Collection, ATCC, Manassas, Va.) were routinely cultured in growth medium consisting of minimum essential medium containing 10% fetal bovine serum (FBS, Hyclone, Logan, Utah), 100 U/mL penicillin, 100 μg/mL streptomycin, 2 mM L-glutamine, 1 mM sodium pyruvate, and 1×MEM non-essential amino acids. 80-90% confluent flasks of cells were differentiated using the following differentiation medium: Growth medium plus 1 mM dibutyryl cyclic AMP (Sigma, St. Louis, Mo.), and 2.5 μM bromodeoxyuridine (Sigma). Cells were differentiated for 8 days by replacing differentiation medium every 2-3 days. A7r5 (ATCC) cells were maintained and routinely cultured in A7r5 growth medium consisting of Dulbecco's Modified Eagles Medium containing 10% FBS, 100 U/mL penicillin, 100 μg/mL streptomycin, 4 mM L-glutamine, and 0.15% sodium bicarbonate. 80-90% confluent flasks of cells were differentiated using the following differentiation medium: A7r5 Growth Medium plus 1 mM dibutyryl cyclic AMP (Sigma). Cells were differentiated for 8 days by replacing differentiation medium every 2-3 days.
Recombinant human embryonal kidney cells (HEK293, ATCC) stably transfected with either N-type calcium channel (NTCC) subunits (α1b, α2δ, and β3) or L-type calcium channel (LTCC) subunits (α1c, α2δ, and β1) were routinely cultured in growth medium consisting of Dulbecco's Modified Eagles Medium containing 10% FBS, 100 U/mL penicillin, 100 μg/mL streptomycin, 4 mM L-glutamine, 500 μg/mL geneticin (G418), 20 μg/mL Blasticidin S (InVivogen, San Diego, Calif.) and 500 μg/mL zeocin (InVivogen). FLIPR Calcium Mobilization Assay for N-type Calcium Channel. One day prior to performing this assay, differentiated IMR32 cells were treated with lx CellStripper, and seeded on poly-D-lysine-coated 96-well clear-bottom black plates (Becton Dickinson, Franklin Lakes, N.J.) at 200,000 cells/well. On the day of the assay, the cell plates were washed with IMR32 buffer (127 mM NaCl, 1 mM KCl, 2 mM MgCl2, 700 μM NaH2PO4, 5 mM CaCl2, 5 mM NaHCO3, 8 mM HEPES, 10 mM glucose, pH 7.4), then pre-stimulated with KCl and loaded as follows: 0.05 mL of IMR32 buffer, 0.05 mL of each compound tested diluted in IMR32 buffer containing 20 μM nitrendipine (Sigma), and 0.1 mL KCl dissolved in IMR32 buffer, plus Fluo-4 were added (3 μM final concentration, Molecular Probes, Eugene, Oreg.). Final test compound concentrations ranged from about 846 pM to about 17 μM, final nitrendipine concentration was 5 μM, and final KCl concentration was 90 mM. After 1 hour, the cells were washed twice with 0.05 mL of each compound tested in nitrendipine-containing IMR32 buffer (no KCl or Fluo-4), and then replaced with 0.1 mL of each compound tested in nitrendipine-containing IMR32 buffer. Plates were then transferred to a Fluorimetric Imaging Plate Reader (FLIPR^96, Molecular Devices, Inc., Sunnyvale, Calif.) for assay. The FLIPR measured basal Fluo-4 fluorescence for 315 seconds (i.e., 5 minutes and 15 seconds), then added 0.1 mL KCl agonist dissolved in IMR32 buffer and measured fluorescence for another 45 seconds. Final test compound concentrations on the cells after FLIPR read ranged from about 846 pM to about 17 μM, final nitrendipine concentration was 5 μM, and final KCl concentration was 90 mM. Data were collected over the entire time course and analyzed using Excel, Graph Pad Prism (version 3.02, Graph Pad, San Diego, Calif.), or an in-house non-linear regression analysis software.

T1 sequence (Q00975 whole entry): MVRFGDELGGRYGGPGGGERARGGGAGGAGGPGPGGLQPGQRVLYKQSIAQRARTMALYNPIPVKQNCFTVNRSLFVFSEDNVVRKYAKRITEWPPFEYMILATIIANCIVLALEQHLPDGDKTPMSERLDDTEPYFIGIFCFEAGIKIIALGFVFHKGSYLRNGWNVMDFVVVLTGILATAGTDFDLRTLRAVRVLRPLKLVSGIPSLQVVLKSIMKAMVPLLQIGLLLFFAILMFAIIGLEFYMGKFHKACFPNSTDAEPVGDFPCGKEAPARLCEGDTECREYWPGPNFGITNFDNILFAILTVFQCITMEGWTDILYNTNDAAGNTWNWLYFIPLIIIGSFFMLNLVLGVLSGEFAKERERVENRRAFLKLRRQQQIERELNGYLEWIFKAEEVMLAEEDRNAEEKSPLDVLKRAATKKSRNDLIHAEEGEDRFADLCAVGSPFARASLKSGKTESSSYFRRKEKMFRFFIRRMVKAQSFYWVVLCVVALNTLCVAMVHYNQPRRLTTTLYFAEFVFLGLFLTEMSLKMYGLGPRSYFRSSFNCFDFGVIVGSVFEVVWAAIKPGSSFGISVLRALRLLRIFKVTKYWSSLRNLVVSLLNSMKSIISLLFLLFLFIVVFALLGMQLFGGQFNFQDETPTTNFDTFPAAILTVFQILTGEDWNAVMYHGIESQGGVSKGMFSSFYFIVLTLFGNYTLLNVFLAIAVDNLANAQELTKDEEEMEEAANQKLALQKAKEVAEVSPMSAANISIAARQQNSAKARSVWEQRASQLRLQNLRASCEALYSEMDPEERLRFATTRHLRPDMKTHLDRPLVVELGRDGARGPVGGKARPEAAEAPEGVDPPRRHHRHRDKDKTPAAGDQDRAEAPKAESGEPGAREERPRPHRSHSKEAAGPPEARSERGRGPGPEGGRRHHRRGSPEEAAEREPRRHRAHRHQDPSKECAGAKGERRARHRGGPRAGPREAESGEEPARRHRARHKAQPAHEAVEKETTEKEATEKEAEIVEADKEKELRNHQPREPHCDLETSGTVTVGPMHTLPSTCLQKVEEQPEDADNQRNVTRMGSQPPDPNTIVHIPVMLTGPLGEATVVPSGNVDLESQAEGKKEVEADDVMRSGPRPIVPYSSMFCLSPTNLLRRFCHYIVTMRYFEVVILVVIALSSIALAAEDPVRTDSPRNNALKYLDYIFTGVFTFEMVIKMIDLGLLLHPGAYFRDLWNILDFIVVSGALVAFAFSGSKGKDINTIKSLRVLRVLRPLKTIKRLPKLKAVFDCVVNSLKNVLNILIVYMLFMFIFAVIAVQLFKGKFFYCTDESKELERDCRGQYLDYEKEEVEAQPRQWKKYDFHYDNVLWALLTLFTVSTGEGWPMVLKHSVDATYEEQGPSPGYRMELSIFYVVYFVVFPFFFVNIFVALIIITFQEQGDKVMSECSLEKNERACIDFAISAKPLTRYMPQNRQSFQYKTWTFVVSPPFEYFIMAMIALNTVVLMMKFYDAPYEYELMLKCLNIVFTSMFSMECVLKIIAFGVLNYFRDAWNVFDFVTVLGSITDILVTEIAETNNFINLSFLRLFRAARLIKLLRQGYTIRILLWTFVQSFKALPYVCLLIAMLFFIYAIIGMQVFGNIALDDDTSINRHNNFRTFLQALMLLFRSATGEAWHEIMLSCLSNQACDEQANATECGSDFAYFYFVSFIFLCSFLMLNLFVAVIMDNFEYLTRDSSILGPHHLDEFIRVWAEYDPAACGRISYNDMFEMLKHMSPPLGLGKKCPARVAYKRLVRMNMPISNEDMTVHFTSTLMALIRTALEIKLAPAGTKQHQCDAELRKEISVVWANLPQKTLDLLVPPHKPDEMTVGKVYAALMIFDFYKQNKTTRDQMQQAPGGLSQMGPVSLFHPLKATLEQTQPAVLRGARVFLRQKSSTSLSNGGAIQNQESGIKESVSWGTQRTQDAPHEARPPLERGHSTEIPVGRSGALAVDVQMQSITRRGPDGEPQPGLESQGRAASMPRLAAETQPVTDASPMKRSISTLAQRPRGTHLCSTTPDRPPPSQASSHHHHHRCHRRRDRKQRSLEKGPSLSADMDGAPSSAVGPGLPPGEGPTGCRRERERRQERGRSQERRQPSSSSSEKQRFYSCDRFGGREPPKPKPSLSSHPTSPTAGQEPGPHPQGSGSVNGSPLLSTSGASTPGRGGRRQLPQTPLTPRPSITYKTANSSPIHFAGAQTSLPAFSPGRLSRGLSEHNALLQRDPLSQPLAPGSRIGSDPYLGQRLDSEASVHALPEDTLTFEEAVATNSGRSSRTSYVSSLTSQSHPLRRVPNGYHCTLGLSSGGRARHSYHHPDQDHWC
T1 sequence (P54289 25-956 partner limits assumed): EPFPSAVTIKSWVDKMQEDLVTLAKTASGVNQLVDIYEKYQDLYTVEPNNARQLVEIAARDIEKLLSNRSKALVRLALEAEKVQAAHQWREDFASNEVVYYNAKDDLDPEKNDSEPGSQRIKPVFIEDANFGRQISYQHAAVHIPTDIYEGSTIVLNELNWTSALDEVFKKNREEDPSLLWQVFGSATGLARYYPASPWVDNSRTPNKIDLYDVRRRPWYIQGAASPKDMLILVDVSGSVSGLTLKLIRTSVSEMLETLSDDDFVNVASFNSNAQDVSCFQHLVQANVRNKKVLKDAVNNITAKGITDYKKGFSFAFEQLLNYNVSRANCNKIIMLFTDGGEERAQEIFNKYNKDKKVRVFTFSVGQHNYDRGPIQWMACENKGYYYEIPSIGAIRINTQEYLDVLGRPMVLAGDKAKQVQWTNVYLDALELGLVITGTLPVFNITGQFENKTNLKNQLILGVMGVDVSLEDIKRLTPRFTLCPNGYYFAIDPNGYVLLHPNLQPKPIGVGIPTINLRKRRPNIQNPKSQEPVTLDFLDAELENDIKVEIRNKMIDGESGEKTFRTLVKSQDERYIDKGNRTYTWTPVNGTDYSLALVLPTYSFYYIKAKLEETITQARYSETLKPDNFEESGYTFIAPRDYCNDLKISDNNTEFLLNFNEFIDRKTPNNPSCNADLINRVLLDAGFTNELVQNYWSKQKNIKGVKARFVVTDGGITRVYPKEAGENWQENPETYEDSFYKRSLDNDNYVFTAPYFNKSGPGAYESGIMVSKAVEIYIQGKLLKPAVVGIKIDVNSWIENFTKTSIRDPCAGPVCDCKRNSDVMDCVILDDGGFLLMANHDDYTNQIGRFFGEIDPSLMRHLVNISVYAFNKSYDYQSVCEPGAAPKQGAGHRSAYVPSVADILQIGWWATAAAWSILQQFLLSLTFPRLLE
T1 sequence (P54289 957-1103 partner limits assumed): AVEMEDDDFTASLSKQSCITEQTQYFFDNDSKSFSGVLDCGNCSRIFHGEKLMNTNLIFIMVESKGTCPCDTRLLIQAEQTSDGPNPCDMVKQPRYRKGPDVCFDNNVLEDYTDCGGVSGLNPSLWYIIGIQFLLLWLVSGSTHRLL
T1 sequence (P54284 whole entry partner): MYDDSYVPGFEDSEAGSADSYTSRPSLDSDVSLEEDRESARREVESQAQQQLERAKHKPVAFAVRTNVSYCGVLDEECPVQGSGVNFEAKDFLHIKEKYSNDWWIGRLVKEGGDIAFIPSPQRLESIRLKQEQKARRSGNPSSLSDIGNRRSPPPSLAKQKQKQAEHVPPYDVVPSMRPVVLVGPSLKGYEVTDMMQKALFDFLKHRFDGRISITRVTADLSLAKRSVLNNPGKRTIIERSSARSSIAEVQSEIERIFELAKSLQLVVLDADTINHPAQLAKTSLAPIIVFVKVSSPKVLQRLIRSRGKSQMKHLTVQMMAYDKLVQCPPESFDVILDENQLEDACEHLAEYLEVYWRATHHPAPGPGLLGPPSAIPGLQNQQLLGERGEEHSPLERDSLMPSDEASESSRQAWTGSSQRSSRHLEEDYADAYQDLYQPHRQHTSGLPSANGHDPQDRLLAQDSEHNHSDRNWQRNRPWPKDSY

Point of comparison: `O=C(NO[C@H]1CCN(S(=O)(=O)c2cccc(C(F)(F)F)c2)C1)Nc1cc(C(F)(F)F)cc(C(F)(F)F)c1` [Example 86, (S)-1-(3,5-Bis(trifluoromethyl)phenyl)-3-(1-(3-(trifluoromethyl)phenylsulfonyl)pyrrolidin-3-yloxy)urea], IC50 705 nM. Against it:
- O=C(NO[C@H]1CCN(S(=O)(=O)c2cccc(C(F)(F)F)c2)C1)c1ccc(F)cc1 [Example 16, (S)-4-Fluoro-N-(1-(3-(trifluoromethyl)phenylsulfonyl)pyrrolidin-3-yloxy)benzamide] — 1.7-fold higher, 1220 nM
- O=C(NCCC(F)(F)F)NOC1CCN(S(=O)(=O)c2ccc(OC(F)(F)F)cc2)CC1 [Example 67, 1-(1-(4-(Trifluoromethoxy)phenylsulfonyl)piperidin-4-yloxy)-3-(3,3,3-trifluoropropyl)urea] — 2.1-fold higher, 1490 nM
- O=C(NCCOc1ccc(F)cc1)NOC1CCN(S(=O)(=O)c2cccc(C(F)(F)F)c2)CC1 [Example 31, 1-(2-(4-Fluorophenoxy)ethyl)-3-(1-(3-(trifluoromethyl)phenylsulfonyl)piperidin-4-yloxy)urea] — 4.6-fold lower, 154 nM
- N#Cc1cccc(C(=O)NOC2CCN(S(=O)(=O)c3cccc(C(F)(F)F)c3)CC2)c1 [Example 7, 3-Cyano-N-(1-(3-(trifluoromethyl)phenylsulfonyl)piperidin-4-yloxy)benzamide] — within 1.5-fold, 575 nM
- CN(C(=O)NOC1CCN(S(=O)(=O)c2cccc(C(F)(F)F)c2)CC1)c1ccc(F)cc1 [Example 32, 1-(4-Fluorophenyl)-1-methyl-3-(1-(3-(trifluoromethyl)phenylsulfonyl)piperidin-4-yloxy)urea] — within 1.5-fold, 560 nM
- O=C(NOC1CCN(C(c2ccc(F)cc2)c2ccc(F)cc2)CC1)Nc1ccc(F)cc1 [Example 106, 1-(1-(Bis(4-fluorophenyl)methyl)piperidin-4-yloxy)-3-(4-fluorophenyl)urea] — 3.7-fold higher, 2580 nM
- O=C(NOC1CCN(S(=O)(=O)c2ccc(OC(F)(F)F)cc2)CC1)NC1CCC1 [Example 55, 1-Cyclobutyl-3-(1-(4-(trifluoromethoxy)phenylsulfonyl)piperidin-4-yloxy)urea] — 2.4-fold lower, 290 nM
- O=C(NOC1CCN(S(=O)(=O)c2cccc(C(F)(F)F)c2)CC1)C(c1ccccc1)c1ccccc1 [Example 9, 2,2-Diphenyl-N-(1-(3-(trifluoromethyl)phenylsulfonyl)piperidin-4-yloxy)acetamide] — 3.2-fold lower, 218 nM
- O=C(CCc1ccc(F)cc1)NOC1CCN(S(=O)(=O)c2cccc(C(F)(F)F)c2)CC1 [Example 5, 3-(4-Fluorophenyl)-N-(1-(3-(trifluoromethyl)phenylsulfonyl)piperidin-4-yloxy)propanamide] — 6.9-fold lower, 102 nM
